The source made the active and inactive calls.
Legend:
Prothrombin = Prothrombin (Homo sapiens, UniProt P00734); assay: Thrombin 1536 HTS Dose Response Confirmation. [Related pubchem assays: 1046 (Thrombin 1536 HTS; hits were confirmed in this assay)]; format: functional
[1] = target: Glyceraldehyde-3-phosphate dehydrogenase (Homo sapiens, UniProt P04406)
[2] = target: T1, Alkaline phosphatase, tissue-nonspecific isozyme (Homo sapiens, UniProt P05186); assay: potency against alkaline phosphatase TNAP – biochemical, luminescent, dose response, SAR follow-up (AID 1056)
T1 sequence (P05186 whole entry): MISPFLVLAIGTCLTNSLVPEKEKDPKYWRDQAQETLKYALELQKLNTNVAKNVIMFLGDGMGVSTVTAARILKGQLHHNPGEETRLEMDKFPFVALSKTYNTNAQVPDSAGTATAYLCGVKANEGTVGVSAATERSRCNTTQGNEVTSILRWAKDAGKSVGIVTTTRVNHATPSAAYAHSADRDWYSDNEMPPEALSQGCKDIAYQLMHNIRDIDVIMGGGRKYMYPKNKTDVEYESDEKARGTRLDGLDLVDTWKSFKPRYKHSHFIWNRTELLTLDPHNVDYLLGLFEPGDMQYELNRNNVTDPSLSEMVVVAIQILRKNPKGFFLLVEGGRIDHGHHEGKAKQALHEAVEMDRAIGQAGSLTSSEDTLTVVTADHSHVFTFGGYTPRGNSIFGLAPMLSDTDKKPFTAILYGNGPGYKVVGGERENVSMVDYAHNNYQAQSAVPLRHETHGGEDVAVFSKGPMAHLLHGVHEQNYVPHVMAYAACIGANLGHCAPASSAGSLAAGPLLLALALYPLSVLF

[3] = viability of uninfected HEp-2 cells – cell-based, HTS, cytotoxicity control for RSV inhibitor project, dose response (AID 2410); format: functional; settings: human respiratory syncytial virus
cells [4] = assay: cells
[5] = Trypanosoma cruzi growth suppression in host cells – NIH3T3 host cells, beta-gal luminescence, confirmation (AID 2044); format: functional, cell-based;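 also: intracellular parasites grown in NIH/3T3 mouse fibroblasts as host cells; luminescent beta-galactosidase reporter signal from transgenic T. cruzi replicating inside host cells; inhibitors lower the luminescence signal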
[6] = NIH3T3 cell viability loss – ATP luminescence, mouse fibroblasts, counter-screen, dose response (AID 2010); format: functional, cell-based;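 also: cells exposed to compound for about 90 hours before reading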
[7] = target: Serine/threonine-protein phosphatase PP1-alpha catalytic subunit (Homo sapiens, UniProt P62136); assay: inhibition of protein phosphatase 1 activity – biochemical, fluorescence, dose response (AID 2403);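 also: phosphatase turnover of OMFP into fluorescent 3-O-methylfluorescein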
[8] = target: T2, Serine/threonine-protein phosphatase (Homo sapiens, UniProt Q9BPW0); assay: Counterscreen for inhibitors of PP1: fluorescence-based biochemical high throughput dose response assay to identify inhibitors of Protein Phosphatase 5 (PP5). [Related pubchem assays: 2034 (Summary (PP5 inhibitors)), 1987 (PP5 inhibitors in singlate), 2235 (PP1 inhibitors in singlate)]
T2 sequence (Q9BPW0 whole entry): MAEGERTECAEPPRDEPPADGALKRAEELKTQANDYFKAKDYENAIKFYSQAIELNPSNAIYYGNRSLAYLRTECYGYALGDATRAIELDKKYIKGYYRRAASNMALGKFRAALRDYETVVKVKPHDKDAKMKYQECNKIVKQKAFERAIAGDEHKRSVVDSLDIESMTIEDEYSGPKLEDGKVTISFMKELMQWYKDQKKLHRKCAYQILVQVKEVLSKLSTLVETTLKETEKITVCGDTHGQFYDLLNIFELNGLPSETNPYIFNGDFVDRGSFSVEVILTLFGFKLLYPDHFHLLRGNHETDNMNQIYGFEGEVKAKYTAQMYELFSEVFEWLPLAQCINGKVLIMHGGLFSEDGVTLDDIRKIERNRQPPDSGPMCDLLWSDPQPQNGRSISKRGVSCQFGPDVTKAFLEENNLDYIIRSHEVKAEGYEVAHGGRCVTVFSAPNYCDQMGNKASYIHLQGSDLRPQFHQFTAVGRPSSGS

Coagulation factor XII = target: T3, Coagulation factor XII (Homo sapiens, UniProt P00748); format: functional;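 also: activated factor XIIa alpha cleaving a fluorogenic AMC peptide substrate; inhibitor potency from loss of enzyme activity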
T3 sequence (P00748 whole entry): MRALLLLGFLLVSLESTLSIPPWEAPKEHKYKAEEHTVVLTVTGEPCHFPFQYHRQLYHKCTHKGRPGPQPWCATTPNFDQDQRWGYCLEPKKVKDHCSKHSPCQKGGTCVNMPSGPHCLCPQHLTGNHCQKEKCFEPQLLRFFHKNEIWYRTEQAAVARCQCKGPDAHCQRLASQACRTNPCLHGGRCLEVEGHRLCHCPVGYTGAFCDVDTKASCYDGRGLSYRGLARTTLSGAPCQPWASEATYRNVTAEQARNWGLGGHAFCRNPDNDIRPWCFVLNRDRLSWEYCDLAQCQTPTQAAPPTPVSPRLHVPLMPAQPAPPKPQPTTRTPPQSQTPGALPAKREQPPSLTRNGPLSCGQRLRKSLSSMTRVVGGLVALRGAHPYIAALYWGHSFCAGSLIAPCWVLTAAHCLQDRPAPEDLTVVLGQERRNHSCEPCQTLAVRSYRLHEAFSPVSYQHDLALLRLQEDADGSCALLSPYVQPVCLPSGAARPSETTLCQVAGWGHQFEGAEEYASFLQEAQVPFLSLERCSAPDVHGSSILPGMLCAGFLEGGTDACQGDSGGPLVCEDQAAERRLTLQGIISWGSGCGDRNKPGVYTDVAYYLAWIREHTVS

Cytochrome P450 3A4 = Cytochrome P450 3A4 (Homo sapiens, UniProt P08684);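 also: CYP3A4 tested as one member of a cytochrome P450 panel screen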
[9] = alpha-synuclein stem-loop luciferase translation blockers – H4 neuroglioma cells, luminescence, confirmation (AID 1988); format: functional, cell-based
[10] = Luminescence Cell-Based Dose Response HTS to Identify Inhibitors of 5'UTR Stem-Loop Driven Prion Protein mRNA Translation in H4 Neuroglioblastoma Cells. [Related pubchem assays: 1827 (Project Summary), 1813 (Primary HTS)]; format: functional
HT-1080 = assay: HT1080 cell viability loss – fluorescence readout (AID 620); format: functional, cell-based; settings: Homo sapiens
[11] = target: Luciferin 4-monooxygenase (Photinus pyralis, UniProt P08659); assay: Counter Screen for Luciferase-based Assay Positives. [Related pubchem assays: 620, 618, 411 ]
BJ [12] = assay: cells; format: functional, cell-based; settings: Homo sapiens
[13] = DRD fibroblast viability loss – cell-based, non-viral oncogenic, luminescence, dose response (AID 1934); format: functional; settings: Homo sapiens
BJ [14] = assay: BJ-TERT-LT-ST fibroblast viability loss – cell-based, RAS-independent, luminescence, dose response (AID 1935); format: functional; settings: Homo sapiens;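 also: BJ fibroblasts immortalized with TERT plus LT and ST oncogenes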
BJ [15] = assay: BJ-TERT fibroblast viability loss – cell-based, RAS-independent, luminescence, dose response (AID 1933); format: functional; settings: Homo sapiens
cells [16] = assay: cells; remark: listed apart in the source
[17] = target: T4, Oxysterols receptor LXR-beta (Homo sapiens, UniProt P55055); format: functional, cell-based;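 also: Cell-based luminescence dose-response assay of agonist activity at LXR, run as a confirmatory counterscreen to a daf-12 agonist screen; HEK293 cells with Gal4-LXR fusion and GAL4-driven luciferase reporter; agonist potency from rising luciferase signal of a Gal4-LXR reporter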
T4 sequence (P55055 whole entry): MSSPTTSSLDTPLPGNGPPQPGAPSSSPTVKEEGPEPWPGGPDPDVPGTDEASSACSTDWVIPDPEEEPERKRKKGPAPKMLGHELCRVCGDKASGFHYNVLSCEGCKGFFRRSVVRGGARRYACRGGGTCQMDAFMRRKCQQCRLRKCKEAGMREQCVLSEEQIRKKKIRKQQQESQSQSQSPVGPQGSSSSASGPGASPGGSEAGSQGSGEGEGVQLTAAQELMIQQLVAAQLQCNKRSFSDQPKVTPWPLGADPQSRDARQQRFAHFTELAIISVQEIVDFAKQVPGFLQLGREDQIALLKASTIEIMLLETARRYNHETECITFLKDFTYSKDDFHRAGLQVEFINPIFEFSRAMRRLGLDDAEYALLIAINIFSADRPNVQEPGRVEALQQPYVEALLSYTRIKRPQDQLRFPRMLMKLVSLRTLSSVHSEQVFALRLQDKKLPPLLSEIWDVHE

INS1 = assay: INS-1E survival protection against cytokine death – cell-based, luminescence, retest, dose response (AID 449756); format: functional; settings: Rattus norvegicus;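 also: cell death triggered by IL-1 beta plus TNF-alpha plus IFN-gamma mixture; protective hits raise ATP signal compared with cytokine alone wells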
[18] = target: T5, Female germline-specific tumor suppressor gld-1 (Caenorhabditis elegans, UniProt Q17339); assay: blockers of GLD-1/TGE RNA complex formation – biochemical, fluorescence polarization, C. elegans, dose response (AID 2802);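 also: fluorescence polarization of labeled TGE RNA bound by purified gld-1 protein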
T5 sequence (Q17339 whole entry): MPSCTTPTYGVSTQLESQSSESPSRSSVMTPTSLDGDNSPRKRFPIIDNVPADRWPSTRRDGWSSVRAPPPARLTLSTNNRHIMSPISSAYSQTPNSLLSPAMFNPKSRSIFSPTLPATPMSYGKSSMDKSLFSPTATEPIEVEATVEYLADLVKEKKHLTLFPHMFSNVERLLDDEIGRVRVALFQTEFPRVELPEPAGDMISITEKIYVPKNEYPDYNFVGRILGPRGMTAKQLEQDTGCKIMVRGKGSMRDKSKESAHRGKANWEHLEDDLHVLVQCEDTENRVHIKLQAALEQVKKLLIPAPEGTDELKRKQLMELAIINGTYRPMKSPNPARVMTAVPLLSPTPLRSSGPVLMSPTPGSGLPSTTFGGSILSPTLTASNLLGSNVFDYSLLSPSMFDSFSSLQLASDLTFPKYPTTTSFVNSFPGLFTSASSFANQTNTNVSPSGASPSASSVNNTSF

Protein Rev = target: T6, Protein Rev (Human immunodeficiency virus type 1 group M subtype B (isolate HXB2)(HIV-1), UniProt P04618); assay: blockers of HIV Rev/RRE RNA complex – biochemical, fluorescence polarization, HIV-1, dose response (AID 434976); parameters: species or system Human immunodeficiency virus 1
T6 sequence (P04618 whole entry): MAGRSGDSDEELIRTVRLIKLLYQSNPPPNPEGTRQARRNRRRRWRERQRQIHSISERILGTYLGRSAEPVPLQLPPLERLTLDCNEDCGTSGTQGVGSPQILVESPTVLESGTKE

Genome polyprotein = Genome polyprotein (dengue virus type 2, UniProt P29990); assay: flavivirus cap methylation enzyme inhibition – biochemical, confirmation dose response, primary screen (AID 588689); format: functional
Sequence of Genome polyprotein (P29990 2492-3391 limits assumed): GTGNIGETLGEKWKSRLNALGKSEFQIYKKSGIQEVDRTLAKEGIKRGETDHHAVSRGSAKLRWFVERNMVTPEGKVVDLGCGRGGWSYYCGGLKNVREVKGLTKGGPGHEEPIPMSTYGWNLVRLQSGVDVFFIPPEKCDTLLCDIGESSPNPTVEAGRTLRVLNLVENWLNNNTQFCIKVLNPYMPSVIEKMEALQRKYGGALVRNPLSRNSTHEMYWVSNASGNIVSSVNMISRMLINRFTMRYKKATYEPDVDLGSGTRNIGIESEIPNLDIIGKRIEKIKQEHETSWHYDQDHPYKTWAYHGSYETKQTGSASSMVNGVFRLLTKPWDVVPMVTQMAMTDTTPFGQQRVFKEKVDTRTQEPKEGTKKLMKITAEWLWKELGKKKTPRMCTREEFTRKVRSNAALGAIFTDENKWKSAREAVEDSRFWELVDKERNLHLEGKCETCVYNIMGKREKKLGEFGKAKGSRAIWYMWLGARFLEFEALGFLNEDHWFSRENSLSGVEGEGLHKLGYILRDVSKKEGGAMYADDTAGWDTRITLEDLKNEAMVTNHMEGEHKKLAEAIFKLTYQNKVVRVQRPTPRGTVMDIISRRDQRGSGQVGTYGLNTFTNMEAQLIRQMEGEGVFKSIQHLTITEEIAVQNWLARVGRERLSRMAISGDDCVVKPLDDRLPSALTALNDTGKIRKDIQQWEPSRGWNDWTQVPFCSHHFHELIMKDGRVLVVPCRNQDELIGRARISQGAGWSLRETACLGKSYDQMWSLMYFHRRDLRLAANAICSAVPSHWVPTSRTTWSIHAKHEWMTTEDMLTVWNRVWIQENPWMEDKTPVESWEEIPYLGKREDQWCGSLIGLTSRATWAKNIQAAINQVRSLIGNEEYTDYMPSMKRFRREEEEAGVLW

Sequence of Glyceraldehyde-3-phosphate dehydrogenase (P04406 whole entry): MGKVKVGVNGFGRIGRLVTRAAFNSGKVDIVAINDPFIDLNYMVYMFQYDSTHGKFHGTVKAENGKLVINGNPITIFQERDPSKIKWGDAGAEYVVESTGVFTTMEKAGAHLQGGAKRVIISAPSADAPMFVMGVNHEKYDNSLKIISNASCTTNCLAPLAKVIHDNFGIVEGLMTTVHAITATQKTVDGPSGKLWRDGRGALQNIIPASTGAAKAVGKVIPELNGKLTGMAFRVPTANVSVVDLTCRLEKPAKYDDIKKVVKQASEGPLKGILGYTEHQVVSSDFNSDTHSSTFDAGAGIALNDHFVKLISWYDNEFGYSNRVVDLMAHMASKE
Sequence of Luciferin 4-monooxygenase (P08659 whole entry): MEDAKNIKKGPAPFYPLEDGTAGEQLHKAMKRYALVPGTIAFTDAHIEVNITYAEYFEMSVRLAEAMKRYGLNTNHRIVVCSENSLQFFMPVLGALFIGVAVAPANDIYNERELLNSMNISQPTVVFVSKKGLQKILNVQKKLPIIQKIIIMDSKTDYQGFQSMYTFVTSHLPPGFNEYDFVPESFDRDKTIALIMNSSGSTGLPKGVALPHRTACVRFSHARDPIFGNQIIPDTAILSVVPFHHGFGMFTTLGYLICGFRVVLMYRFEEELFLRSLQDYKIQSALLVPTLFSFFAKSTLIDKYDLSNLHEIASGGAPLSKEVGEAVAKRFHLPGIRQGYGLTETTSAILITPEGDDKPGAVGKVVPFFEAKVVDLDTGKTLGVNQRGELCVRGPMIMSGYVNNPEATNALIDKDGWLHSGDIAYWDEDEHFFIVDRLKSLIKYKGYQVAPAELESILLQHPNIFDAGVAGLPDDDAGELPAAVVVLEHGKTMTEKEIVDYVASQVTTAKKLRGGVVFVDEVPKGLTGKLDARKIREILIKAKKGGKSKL
Sequence of Serine/threonine-protein phosphatase PP1-alpha catalytic subunit (P62136 whole entry): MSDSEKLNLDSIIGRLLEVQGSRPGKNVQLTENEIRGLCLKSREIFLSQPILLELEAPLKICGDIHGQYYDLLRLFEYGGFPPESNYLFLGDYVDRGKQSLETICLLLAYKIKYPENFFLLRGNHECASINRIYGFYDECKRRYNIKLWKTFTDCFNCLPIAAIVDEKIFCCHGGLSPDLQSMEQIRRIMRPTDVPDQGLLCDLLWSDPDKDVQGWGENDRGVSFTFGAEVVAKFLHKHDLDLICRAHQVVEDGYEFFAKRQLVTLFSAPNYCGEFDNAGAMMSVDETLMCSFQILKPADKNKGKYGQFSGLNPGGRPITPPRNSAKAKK
Sequence of Cytochrome P450 3A4 (P08684 whole entry): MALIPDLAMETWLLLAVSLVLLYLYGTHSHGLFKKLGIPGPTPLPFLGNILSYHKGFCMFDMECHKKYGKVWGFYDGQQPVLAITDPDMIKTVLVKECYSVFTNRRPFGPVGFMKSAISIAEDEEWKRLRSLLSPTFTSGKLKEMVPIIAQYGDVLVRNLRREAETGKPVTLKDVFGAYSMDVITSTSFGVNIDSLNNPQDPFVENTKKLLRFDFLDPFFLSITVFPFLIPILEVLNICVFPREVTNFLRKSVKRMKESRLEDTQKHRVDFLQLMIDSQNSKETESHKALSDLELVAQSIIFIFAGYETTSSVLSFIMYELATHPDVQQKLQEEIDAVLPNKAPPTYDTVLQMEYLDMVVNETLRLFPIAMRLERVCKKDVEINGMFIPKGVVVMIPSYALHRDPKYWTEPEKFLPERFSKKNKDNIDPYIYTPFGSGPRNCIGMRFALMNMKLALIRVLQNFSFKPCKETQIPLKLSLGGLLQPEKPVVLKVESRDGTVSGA

Structure (SMILES): CC1CCc2c(sc(NC(=O)COC(=O)C3CCCO3)c2C#N)C1 (configuration not stated)
- IC50 (Prothrombin): > 50 µM (not active)

Structure (SMILES): O=S(=O)(Nc1cnc2ccccc2c1)c1ccccc1
- IC50 [1]: > 100 µM (not active)
- IC50 [2]: > 100 µM (inactive)

Structure (SMILES): COc1ccc(CN2C(=O)c3ccccc3C2C(=O)NC2CCCCCC2)c(OC)c1 (configuration not stated)
- IC50 (Prothrombin): 10.8 µM (active)

Structure (SMILES): CC(=O)Nc1nnc(S(C)(=O)=O)[nH]1
- IC50 [1]: > 100 µM (not active)
- IC50 [2]: > 100 µM (inactive)

Structure (SMILES): Cc1ccc(C)c(Nc2c([N+](=O)[O-])cc(C(=O)N3CC(=O)Nc4ccccc43)cc2[N+](=O)[O-])c1
- CC50 [3]: 28.3 µM (active)
- IC50 (cells [4]): 41.7 µM (active)
- EC50 [5]: 0.992 µM (active)
- EC50 [6]: > 60 µM (inconclusive)

Structure (SMILES): CCOC(=O)c1cnc(-n2nc(C)cc2C)nc1NCCc1ccccc1
- IC50 [7]: 6.96 µM (active)
- IC50 [8]: > 67 µM (not active)
- EC50 [5]: 2.04 µM (active)
- EC50 [6]: > 30 µM (not active)

Structure (SMILES): CCOc1cc(CO)ccc1OCC(=O)N1CCCCC1
- IC50 (Coagulation factor XII): > 50 µM (inactive)

Structure (SMILES): COc1cnc(-c2ccccn2)nc1Oc1cccc(Cl)c1
- IC50 [7]: 8.46 µM (active)
- IC50 [8]: > 67 µM (not active)

Structure (SMILES): Cc1ccc(C(=O)N/C(=C/c2ccc(C(C)C)cc2)C(=O)NCCCN2CCOCC2)cc1
- CC50 [3]: > 50 µM (active)
- IC50 (cells [4]): 13.2 µM (active)

Structure (SMILES): CCOC(=O)CSc1nnc(NC(=O)c2ccccc2)[nH]1
- AC50 (Cytochrome P450 3A4): 39.8 µM (inconclusive)
- IC50 (Prothrombin): 0.862 µM (active)

Structure (SMILES): COc1ccccc1CC(=O)NN1C(=O)c2ccccc2C1=O
- IC50 (Coagulation factor XII): > 50 µM (inactive)

Structure (SMILES): C=CCn1c(C)cc(C(=O)CSc2nc3ccccc3[nH]2)c1C
- EC50 [9]: 9.31 µM (active)
- EC50 [10]: 11.1 µM (active)
- EC50 (HT-1080): > 50 µM (not active)
- EC50 [11]: < 0.2 µM (active)

Structure (SMILES): O=C(c1c(Cl)nc2sccn12)N1CCN(c2cccc(Cl)c2)CC1
- EC50 (HT-1080): 11.3 µM (active)
- EC50 (BJ [12]): 75.7 µM (inconclusive)
- EC50 [11]: 0.39 µM (active)
- EC50 [13]: 1.56 µM (active)
- EC50 (BJ [14]): 1.36 µM (inconclusive)
- EC50 (BJ [15]): 3.07 µM (active)

Structure (SMILES): Cc1cc(N2CCOCC2)n2ncc(-c3ccccc3)c2n1
- EC50 (HT-1080): > 50 µM (not active)
- EC50 [11]: 0.2 µM (active)
- EC50 (cells [16]): > 67.5 µM (inactive)
- EC50 [17]: > 67.5 µM (inactive)
- AC50 (INS1): 7.88 µM (active)

Structure (SMILES): O=C1c2ccccc2C(=O)N1c1nnc(Cc2ccc(F)cc2)[nH]1
- IC50 [1]: > 100 µM (not active)
- IC50 [2]: 4.66 µM (active)

Structure (SMILES): Cc1ccc(C(=O)N/N=C/c2ccc(-c3ccc(Br)cc3[N+](=O)[O-])o2)o1
- IC50 [18]: 10.4 µM (inactive)
- IC50 (Protein Rev): > 25.1 µM (not active)
- IC50 (Genome polyprotein): > 100 µM (active)
